From PubChem BioAssay AID330 (DTP/NCI, 2004)
Values joined by “and” are separate entries in the source; they are usually repeats but may differ in a detail not shown here. Equal entries are not always repeated. Inconclusive results and toxic doses are left out.

Tested on: P388 leukemia ip, CD2F1 mice, survival T/C
Assay: NCI In Vivo Anticancer Drug Screen. Data for tumor model P388 Leukemia (intraperitoneal) in CD2F1 (CDF1) mice
Details: endpoint: median survival time, higher = longer survival
Method in brief: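 Mice carrying the transplanted tumor received test compound or vehicle. Survival was recorded in each group, and the value is the treated-group measurement divided by that of the vehicle-treated control group.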

[1] = dose: 50.0 mg/kg/injection, schedule: Q01DX009 (ip), vehicle: saline
[2] = dose: 100.0 mg/kg/injection, schedule: Q01DX009 (ip), vehicle: saline
[3] = dose: 50.0 mg/kg/injection, schedule: Q01DX005 (ip), vehicle: Klucel (hydroxypropylcellulose) (HPC)
[4] = dose: 100.0 mg/kg/injection, schedule: Q01DX005 (ip), vehicle: Klucel (hydroxypropylcellulose) (HPC)
[5] = dose: 100.0 mg/kg/injection, schedule: Q01DX009 (ip), vehicle: Klucel (hydroxypropylcellulose) (HPC)
[6] = dose: 200.0 mg/kg/injection, schedule: Q01DX009 (ip), vehicle: Klucel (hydroxypropylcellulose) (HPC)

Cc1ccc(S(=O)(=O)N2CCCN(S(=O)(=O)c3ccc(C)cc3)CCSCCCSCC2)cc1
T/C (dose: 25.0 mg/kg/injection, schedule: Q01DX009 (ip), vehicle: saline with Tween-80): 98 % of control | T/C (dose: 50.0 mg/kg/injection, schedule: Q01DX009 (ip), vehicle: saline with Tween-80): 87 % of control

COc1ccc(-c2c(C)c(C)nc(Cl)c2C#N)c(OCc2ccccc2)c1OC
T/C (dose: 0.05 mg/kg/injection, schedule: Q01DX009 (ip), vehicle: water): 100 % of control | T/C (dose: 0.1 mg/kg/injection, schedule: Q01DX009 (ip), vehicle: water): 104 % of control | T/C (dose: 0.2 mg/kg/injection, schedule: Q01DX009 (ip), vehicle: water): 104 % of control | T/C (dose: 0.4 mg/kg/injection, schedule: Q01DX009 (ip), vehicle: other): 96 % of control | T/C (dose: 0.4 mg/kg/injection, schedule: Q01DX009 (ip), vehicle: water): 99 % of control | T/C (dose: 0.8 mg/kg/injection, schedule: Q01DX009 (ip), vehicle: other): 97 % of control | T/C (dose: 1.6 mg/kg/injection, schedule: Q01DX009 (ip), vehicle: other): 94 % of control | T/C (dose: 3.2 mg/kg/injection, schedule: Q01DX009 (ip), vehicle: other): 100 % of control | T/C (dose: 6.25 mg/kg/injection, schedule: Q01DX009 (ip), vehicle: other): 110 % of control | T/C (dose: 6.4 mg/kg/injection, schedule: Q01DX009 (ip), vehicle: other): 102 % of control | T/C (dose: 12.5 mg/kg/injection, schedule: Q01DX009 (ip), vehicle: other): 108 % of control | T/C (dose: 25.0 mg/kg/injection, schedule: Q01DX009 (ip), vehicle: other): 104 % of control | T/C (dose: 50.0 mg/kg/injection, schedule: Q01DX009 (ip), vehicle: other): 103 % of control | T/C (dose: 100.0 mg/kg/injection, schedule: Q01DX009 (ip), vehicle: other): 111 % of control | T/C (dose: 200.0 mg/kg/injection, schedule: Q01DX009 (ip), vehicle: other): 102 % of control | T/C (dose: 400.0 mg/kg/injection, schedule: Q01DX009 (ip), vehicle: other): 105 % of control

CCOC(=O)NNc1cccc(Cl)c1
T/C [1]: 100 % of control | T/C [2]: 100 % of control

O=NNc1c2c(nc3ccccc13)CCCC2
T/C (dose: 3.12 mg/kg/injection, schedule: Q01DX009 (ip), vehicle: water): 94 % of control | T/C (dose: 6.25 mg/kg/injection, schedule: Q01DX009 (ip), vehicle: water): 94 % of control | T/C (dose: 12.5 mg/kg/injection, schedule: Q01DX009 (ip), vehicle: water): 103 % of control | T/C (dose: 25.0 mg/kg/injection, schedule: Q01DX009 (ip), vehicle: water): 100 % of control and 111 % of control and 112 % of control | T/C (dose: 50.0 mg/kg/injection, schedule: Q01DX009 (ip), vehicle: water): 100 % of control and 110 % of control and 123 % of control | T/C (dose: 100.0 mg/kg/injection, schedule: Q01DX009 (ip), vehicle: water): 100 % of control and 106 % of control | T/C (dose: 200.0 mg/kg/injection, schedule: Q01DX009 (ip), vehicle: water): 89 % of control

CC(=O)N(CC1OC2OC(C)(C)OC2C2OC(C)(C)OC12)N=Nc1ccc([N+](=O)[O-])cc1 (configuration not stated)
T/C [3]: 100 % of control | T/C [4]: 89 % of control | T/C (dose: 200.0 mg/kg/injection, schedule: Q01DX005 (ip), vehicle: Klucel (hydroxypropylcellulose) (HPC)): 91 % of control

O=C1CC=C2C3CC4N(CCC45c4ccccc4N1C25)C/C3=C\CBr (configuration not stated)
T/C (dose: 1.87 mg/kg/injection, schedule: Q01DX005 (ip), vehicle: Klucel (hydroxypropylcellulose) (HPC)): 105 % of control | T/C (dose: 3.75 mg/kg/injection, schedule: Q01DX005 (ip), vehicle: Klucel (hydroxypropylcellulose) (HPC)): 103 % of control | T/C (dose: 7.5 mg/kg/injection, schedule: Q01DX005 (ip), vehicle: Klucel (hydroxypropylcellulose) (HPC)): 101 % of control and 105 % of control

NC(=O)CNC(c1ccccc1)c1ccccc1
T/C (dose: 37.5 mg/kg/injection, schedule: Q01DX009 (ip), vehicle: saline with Tween-80): 107 % of control | T/C (dose: 75.0 mg/kg/injection, schedule: Q01DX009 (ip), vehicle: saline with Tween-80): 106 % of control | T/C (dose: 150.0 mg/kg/injection, schedule: Q01DX009 (ip), vehicle: saline with Tween-80): 100 % of control

Nc1nc(N)c(N2CCN(Cc3ccccc3)CC2)c(Cl)n1
T/C (dose: 15.0 mg/kg/injection, schedule: Q01DX005 (ip), vehicle: Klucel (hydroxypropylcellulose) (HPC)): 101 % of control | T/C (dose: 30.0 mg/kg/injection, schedule: Q01DX005 (ip), vehicle: Klucel (hydroxypropylcellulose) (HPC)): 99 % of control | T/C (dose: 60.0 mg/kg/injection, schedule: Q01DX005 (ip), vehicle: Klucel (hydroxypropylcellulose) (HPC)): 99 % of control and 104 % of control

Cc1cc(C)c(F)[c]([Hg][Br])c1N
T/C (dose: 0.78 mg/kg/injection, schedule: Q01DX005 (ip), vehicle: Klucel (hydroxypropylcellulose) (HPC)): 89 % of control | T/C (dose: 1.56 mg/kg/injection, schedule: Q01DX005 (ip), vehicle: Klucel (hydroxypropylcellulose) (HPC)): 92 % of control | T/C (dose: 6.25 mg/kg/injection, schedule: Q01DX005 (ip), vehicle: Klucel (hydroxypropylcellulose) (HPC)): 90 % of control and 92 % of control

Cc1nn(C)pc1P(C)(=S)n1nc(N(C)C)np1 (configuration not stated)
T/C [3]: 98 % of control | T/C [4]: 103 % of control

Cc1nc(N)nc(N)c1-c1ccc(Cl)c(Cl)c1
T/C (dose: 1.0 mg/kg/injection, schedule: Q01DX009 (ip), vehicle: saline): 109 % of control | T/C (dose: 2.0 mg/kg/injection, schedule: Q01DX009 (ip), vehicle: saline): 123 % of control | T/C (dose: 3.0 mg/kg/injection, schedule: Q01DX009 (ip), vehicle: saline with Tween-80): 163 % of control | T/C (dose: 4.0 mg/kg/injection, schedule: Q01DX009 (ip), vehicle: saline): 98 % of control | T/C (dose: 4.0 mg/kg/injection, schedule: Q04DX002 (ip), vehicle: saline with Tween-80): 104 % of control | T/C (dose: 6.0 mg/kg/injection, schedule: Q01DX009 (ip), vehicle: saline with Tween-80): 86 % of control | T/C (dose: 6.0 mg/kg/injection, schedule: Q04DX002 (ip), vehicle: saline with Tween-80): 104 % of control | T/C (dose: 6.25 mg/kg/injection, schedule: Q04DX003 (ip), vehicle: saline with Tween-80): 120 % of control | T/C (dose: 8.0 mg/kg/injection, schedule: Q01DX009 (ip), vehicle: saline): 98 % of control | T/C (dose: 8.0 mg/kg/injection, schedule: Q04DX002 (ip), vehicle: saline with Tween-80): 99 % of control | T/C (dose: 10.0 mg/kg/injection, schedule: Q04DX002 (ip), vehicle: saline with Tween-80): 107 % of control | T/C (dose: 12.0 mg/kg/injection, schedule: Q04DX002 (ip), vehicle: saline with Tween-80): 123 % of control | T/C (dose: 20.0 mg/kg/injection, schedule: Q04DX002 (ip), vehicle: saline): 99 % of control | T/C (dose: 25.0 mg/kg/injection, schedule: Q04DX003 (ip), vehicle: saline with Tween-80): 155 % of control | T/C (dose: 30.0 mg/kg/injection, schedule: Q04DX002 (ip), vehicle: saline): 107 % of control | T/C (dose: 40.0 mg/kg/injection, schedule: Q04DX002 (ip), vehicle: saline): 119 % of control

CC1C(c2ccc3c(c2)OCO3)CC(Cl)CC12C=C1OCOC1=CC2=O (configuration not stated)
T/C (dose: 8.75 mg/kg/injection, schedule: Q01DX005 (ip), vehicle: Klucel (hydroxypropylcellulose) (HPC)): 101 % of control | T/C (dose: 17.5 mg/kg/injection, schedule: Q01DX005 (ip), vehicle: Klucel (hydroxypropylcellulose) (HPC)): 101 % of control | T/C (dose: 35.0 mg/kg/injection, schedule: Q01DX005 (ip), vehicle: Klucel (hydroxypropylcellulose) (HPC)): 105 % of control

CCOc1ccc(N=Nc2ccc(N)cc2N)cc1
T/C [5]: 118 % of control | T/C [6]: 100 % of control | T/C (dose: 400.0 mg/kg/injection, schedule: Q01DX009 (ip), vehicle: Klucel (hydroxypropylcellulose) (HPC)): 93 % of control

C#CCCCCCC#CCCCCCC#CC(=O)O
T/C (dose: 100.0 mg/kg/injection, schedule: Q01DX001 (ip), vehicle: saline): 104 % of control | T/C (dose: 200.0 mg/kg/injection, schedule: Q01DX001 (ip), vehicle: saline): 101 % of control

COC(=O)C1CC(c2ccccc2)N(c2ccccc2)O1 (configuration not stated)
T/C (dose: 50.0 mg/kg/injection, schedule: Q01DX009 (ip), vehicle: Klucel (hydroxypropylcellulose) (HPC)): 100 % of control | T/C [5]: 103 % of control | T/C [6]: 100 % of control

CC(C)(C)SC(=S)SCC(=O)c1ccc(F)cc1
T/C (dose: 60.0 mg/kg/injection, schedule: Q01DX005 (ip), vehicle: saline with Tween-80): 102 % of control | T/C (dose: 120.0 mg/kg/injection, schedule: Q01DX005 (ip), vehicle: saline with Tween-80): 103 % of control | T/C (dose: 240.0 mg/kg/injection, schedule: Q01DX005 (ip), vehicle: saline with Tween-80): 102 % of control

O=C(O)CS(=O)(=O)CCCCS(=O)(=O)CC(=O)O
T/C [1]: 104 % of control | T/C [2]: 103 % of control | T/C (dose: 200.0 mg/kg/injection, schedule: Q01DX009 (ip), vehicle: saline): 100 % of control
